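Results reflect a 48-hour exposure of cells in 96-well plates to compound at five concentrations. TGI: concentration producing complete growth inhibition.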

Data on twelve compounds can be found in PubChem BioAssay (NCI).

Among the test systems are A549 NSCLC; SNB-19 CNS; MDA-MB-231 breast; RPMI-8226 leukemia; OVCAR-3 ovarian; HOP-92 NSCLC; SR leukemia; EKVX NSCLC; OVCAR-8 ovarian; M14 melanoma; OVCAR-5 ovarian.
Assay in all cases: DTP human tumour cell line panel, 48 h

For `[N-]=[N+]=Nc1cc(=O)n(-c2ccccc2)c(=O)n1-c1ccccc1`, the TGI in the assay on A549 NSCLC, with SNB-19 CNS, in the assay on MDA-MB-231 breast, in the assay with RPMI-8226 leukemia, in the assay with OVCAR-3 ovarian and in the assay with HOP-92 NSCLC was over 100 µM each time. The TGI in the assay with SR leukemia, in the assay with EKVX NSCLC, in the assay on OVCAR-8 ovarian, in the assay with M14 melanoma and in the assay with OVCAR-5 ovarian was over 100 µM throughout.

With `O=c1[nH]c2nccn2c(Cl)c1Br`, the TGI was over 100 µM with A549 NSCLC; 70.5 µM with SNB-19 CNS; 37.4 µM in the assay with MDA-MB-231 breast; over 100 µM in the assay on RPMI-8226 leukemia; 35.7 µM in the assay with OVCAR-3 ovarian; 78.7 µM with HOP-92 NSCLC. Also, the total growth inhibition concentration (TGI) in the assay on SR leukemia is 48.7 µM; in the assay on EKVX NSCLC it was 40.3 µM; with OVCAR-8 ovarian, 39.3 µM; in the assay with M14 melanoma, 34.5 µM; in the assay with OVCAR-5 ovarian, 49.1 µM.

With `Cc1ccc(-c2cnc(NC3OC(COC(=O)c4ccccc4)C(OC(=O)c4ccccc4)C(OC(=O)c4ccccc4)C3OC(=O)c3ccccc3)s2)cc1` (configuration not stated), the TGI in the assay on A549 NSCLC, with SNB-19 CNS, with MDA-MB-231 breast, with RPMI-8226 leukemia, in the assay with OVCAR-3 ovarian and in the assay with HOP-92 NSCLC was over 100 µM each time. Further, the TGI in the assay with SR leukemia, with EKVX NSCLC, in the assay with OVCAR-8 ovarian, in the assay on M14 melanoma and in the assay with OVCAR-5 ovarian was over 100 µM in each case.

Turning to `CSC1=N/C(=C\c2ccc(Cl)cc2)C(=O)N1CN1CCOCC1`, the total growth inhibition concentration (TGI) was over 100 µM in the assay on A549 NSCLC; over 100 µM with SNB-19 CNS; over 100 µM in the assay on MDA-MB-231 breast; over 100 µM in the assay on RPMI-8226 leukemia; over 100 µM in the assay on OVCAR-3 ovarian; 30.6 µM in the assay on HOP-92 NSCLC. Besides, the TGI is over 100 µM in the assay with SR leukemia; over 100 µM in the assay with EKVX NSCLC; 61.6 µM in the assay with OVCAR-8 ovarian; over 100 µM in the assay on M14 melanoma; over 100 µM in the assay with OVCAR-5 ovarian.

In the case of `Cc1nn(-c2ccccc2)c2nc3c(c(C)nn3-c3ccccc3)c(-c3ccccc3Br)c12`, the TGI with A549 NSCLC, in the assay with SNB-19 CNS, with MDA-MB-231 breast, in the assay on RPMI-8226 leukemia, in the assay with OVCAR-3 ovarian and in the assay on HOP-92 NSCLC was over 100 µM throughout. For the same compound, the TGI in the assay on SR leukemia, with EKVX NSCLC, with OVCAR-8 ovarian, with M14 melanoma and in the assay with OVCAR-5 ovarian was over 100 µM each time.

On to `c1ccc2c(c1)n1c(N3CCOCC3)[n+]3ccccc3c1c1c3cccc[n+]3c(N3CCOCC3)n21`, for which the TGI with A549 NSCLC, in the assay on SNB-19 CNS, with MDA-MB-231 breast, in the assay on RPMI-8226 leukemia, in the assay on OVCAR-3 ovarian and in the assay on HOP-92 NSCLC was over 100 µM in each case. In addition, the TGI in the assay with SR leukemia, in the assay with EKVX NSCLC, in the assay on OVCAR-8 ovarian, in the assay with M14 melanoma and in the assay with OVCAR-5 ovarian was over 100 µM each time.

As to `CC(C)[Si](OCC/C=C/C1CCC(=O)C1C(O)C1CCCCC1)(C(C)C)C(C)C` (configuration not stated), the concentration for total growth inhibition (TGI) with A549 NSCLC came out at 28.7 µM; in the assay on SNB-19 CNS it was 32.6 µM; with MDA-MB-231 breast, 36.3 µM; with RPMI-8226 leukemia, 32.8 µM; in the assay with OVCAR-3 ovarian, 30.9 µM; in the assay with HOP-92 NSCLC it was 27.7 µM. Besides, the TGI with SR leukemia amounted to 14.8 µM; in the assay with EKVX NSCLC, 28.9 µM; in the assay with OVCAR-8 ovarian it was 28.8 µM; with M14 melanoma, 37.8 µM; in the assay on OVCAR-5 ovarian, 33.4 µM.

Take `Cc1ccc2nc(CN3CCCCC3)cc(=O)n2c1`: the TGI with A549 NSCLC, in the assay with SNB-19 CNS, in the assay with MDA-MB-231 breast, with RPMI-8226 leukemia, with OVCAR-3 ovarian and with HOP-92 NSCLC was over 100 µM throughout. The TGI in the assay with SR leukemia, in the assay on EKVX NSCLC, in the assay with OVCAR-8 ovarian, in the assay on M14 melanoma and with OVCAR-5 ovarian was over 100 µM throughout.

`NC(=O)CC1(O)C=CC(=O)C=C1`: the TGI in the assay on A549 NSCLC, in the assay with SNB-19 CNS, in the assay with MDA-MB-231 breast, in the assay with RPMI-8226 leukemia, in the assay with OVCAR-3 ovarian and in the assay with HOP-92 NSCLC was over 100 µM throughout. The TGI in the assay with SR leukemia, with EKVX NSCLC, in the assay on OVCAR-8 ovarian, in the assay with M14 melanoma and with OVCAR-5 ovarian was over 100 µM in each case.

Take `Cc1nc2c(n1CCCl)C(=O)c1ccccc1C2=O`: the TGI is over 100 µM in the assay with A549 NSCLC; over 100 µM in the assay on SNB-19 CNS; 56.5 µM in the assay on MDA-MB-231 breast; over 100 µM in the assay on RPMI-8226 leukemia; over 100 µM in the assay on OVCAR-3 ovarian; 72.1 µM with HOP-92 NSCLC. The TGI is over 100 µM in the assay on SR leukemia; over 100 µM with EKVX NSCLC; 42.6 µM with OVCAR-8 ovarian; 17.1 µM with M14 melanoma; 36.3 µM in the assay on OVCAR-5 ovarian.

For the compound `O=S(=O)([N-]c1nc2ccccc2nc1-[n+]1ccccc1)c1ccccc1`, the TGI is over 100 µM in the assay with A549 NSCLC; over 100 µM with SNB-19 CNS; 84.8 µM in the assay on MDA-MB-231 breast; over 100 µM with RPMI-8226 leukemia; over 100 µM with OVCAR-3 ovarian; over 100 µM in the assay with HOP-92 NSCLC. The TGI in the assay on SR leukemia was 77.3 µM; in the assay on EKVX NSCLC, over 100 µM; in the assay on OVCAR-8 ovarian, over 100 µM; in the assay with M14 melanoma it was over 100 µM; with OVCAR-5 ovarian, over 100 µM.

For `O=C(O)c1ccccc1C(=O)OCC1CCCN2CCCCC12` (configuration not stated), the TGI in the assay on A549 NSCLC, in the assay on SNB-19 CNS, in the assay on MDA-MB-231 breast, in the assay on RPMI-8226 leukemia, in the assay on OVCAR-3 ovarian and in the assay with HOP-92 NSCLC was over 100 µM in each case. The TGI in the assay with SR leukemia, in the assay on EKVX NSCLC, in the assay with OVCAR-8 ovarian, in the assay with M14 melanoma and in the assay with OVCAR-5 ovarian was over 100 µM each time.

In general, TGI refers to the concentration giving total growth inhibition. Higher therefore signals less potent growth arrest.
